From patent publication US10682323B2, “Therapeutic agent for glaucoma” (TOA EIYO LTD., priority 2016, dated 2020)

Key:
[1] = tested on: Rabbits with normal intraocular pressure; assay: Influence on intraocular pressure in rabbits with normal intraocular pressure; assay type: in vivo; details: rabbit, 50 μL of 0.1 w/v % solution instilled into one eye, three hours after administration, saline eye minus test eye, average of three
Procedure: Rabbits (strain: Std:NZW, sex: male) with normal intraocular pressure were acclimated to breeding environment for more than three weeks, and subjected to test (three rabbits per one group).
A test compound was weighed, and a required amount of a 10 mmol/L or 20 mmol/L tris hydrochloric acid buffer solution was added thereto with a micropipette and dissolved therein. If necessary, a 1 mol/L hydrochloric acid or a 1 mol/L sodium hydroxide solution was used to prepare a physiological pH, to obtain the test compound solution (0.1 w/v % solution).
50 μL of the test compound solution was instilled into one eye, and 50 μL of a saline solution was instilled into the other eye as a negative control. Three hours after administration, intraocular pressure was measured. In addition, the measurement of intraocular pressure was repeated in the manner of right eye→left eye→right eye→left eye→ . . . , and continued until the changes of three consecutive intraocular pressures of the right eye and the left eye were within 1 mmHg, respectively. The average of three intraocular pressures at that time was recorded as the intraocular pressure at that time. In addition, ΔIOP (mmHg) was calculated by subtracting the intraocular pressure of the eye for instillation of the test compound solution from the intraocular pressure of the eye for instillation of the saline solution.
In addition, the data represents an average of three tests per one group.

[2] = Determination of Log D value (flask shaking method); assay type: physicochemical; details: pH 6.8; partition between n-octanol and second solution for the disintegration test (16th revised Japanese Pharmacopoeia), room temperature
Procedure: More specifically, the Log D is more preferably 1.6 or more and 2.3 or less, still more preferably 1.8 or more and 2.2 or less, and particularly preferably 1.8 or more and 2.1 or less. Here, the Log D value in the present invention is a compound partition coefficient between n-octanol and a second solution of a disintegration test of the 16th revised Japanese Pharmacopoeia.
The Log D value was determined using a flask shaking method, where a test compound partition coefficient between n-octanol and the second solution for the disintegration test defined in the 16th revised Japanese Pharmacopoeia was calculated. Specifically, in a microtube containing 2 mg of the test compound, n-octanol (0.25 mL) and the second solution for the disintegration test (0.25 mL) were mixed. The tube was shaken in a multi shaker at room temperature for 60 minutes, and allowed to stand until the two phases were completely separated. In the microtube, 10 μL of an n-octanol phase was diluted with 190 μL of 85% methanol and mixed, thereby obtaining an organic phase test solution. 100 μL of the second solution phase for the disintegration test was diluted with 100 μL of 50% methanol, and mixed, thereby obtaining an aqueous phase test solution. The organic phase test solution and the aqueous phase test solution were filtered, respectively, and the concentration of the test compound in these test solutions were measured, using high performance liquid chromatography. Then, from the measured concentration and dilution rate, the Log D was calculated.
That is, the Log D of the present specification is represented by the following equation: Log D=Log10([concentration of test compound in organic phase test solution]/[concentration of test compound in aqueous phase test solution])+1 [Equation 1]
The second solution for the disintegration test herein refers to, as defined in the 16th revised Japanese Pharmacopoeia, a liquid obtained by adding to 250 mL of a 0.2 mol/L potassium dihydrogenphosphate reagent, 118 mL of a 0.2 mol/L sodium hydroxide reagent, and water for adjusting to 1000 mL volume.

Row | Compound | ΔIOP [1] | logD [2]
1 | O=C(O)CCCCN(CCc1ccccc1OCc1ccc(CCc2ccccc2)cc1)Cc1ccc(C(=O)O)cc1 [Comparative Compound 1, reference compound] | 0.3 mmHg | 1.5
2 | CC(C)(C)c1cc(CO[C@@H](CN(CCCCC(=O)O)Cc2ccc(C(=O)O)cc2)c2ccccc2)cc(C(C)(C)C)c1 [Comparative Compound 4, reference compound] | 0.2 mmHg | 2.78
3 | O=C(O)CCCCN(Cc1ccc(C(=O)O)cc1)C[C@H](OCc1ccc(CCc2ccccc2)cc1)c1ccccc1 [Compound No. 14, (−)-4-([N-(4-carboxybutyl)-N-[(2R)-2-[4-(2-phenylethyl)benzyloxy]-2-phenylethyl]amino]methyl)benzoic acid] | 5.0 mmHg | 2.04
4 | O=C(O)CCCCN(CCc1ccccc1OCc1ccc(CCc2ccccc2)cc1)C1COc2cc(C(=O)O)ccc21 (centres unmarked) [Comparative Compound 2, reference compound] | 1.5 mmHg | 2.59
5 | O=C(O)CCCCN(CCc1ccccc1OCc1cccc2c1CCCC2)[C@H]1CCCc2cc(C(=O)O)ccc21 [Compound No. 8, (+)-(5S)-5-[N-(4-carboxybutyl)-N-[2-[2-(5,6,7,8-tetrahydronaphthalene-1-ylmethoxy)phenyl]ethyl]amino]-5,6,7,8-tetrahydronaphthalene-2-carboxylic acid] | 5.2 mmHg | 1.87
6 | N#Cc1cccc([C@H](CN(CCCCC(=O)O)Cc2ccc(C(=O)O)cc2)OCc2ccc(Oc3ccccc3)cc2)c1 [Comparative Compound 3, reference compound] | 1.1 mmHg | 1.32
7 | O=C(O)CCCCN(Cc1ccc(C(=O)O)cc1)C[C@H](OCc1ccc(CCc2ccc(Cl)cc2)cc1)c1ccccc1 [Compound No. 6, (−)-4-([N-(4-carboxybutyl)-N-[(2R)-2-[4-[2-(4-chlorophenyl)ethyl]benzyloxy]-2-phenylethyl]amino]methyl)benzoic acid] | 3.4 mmHg | 2.02
